From PubChem BioAssay AID1963985 (Molecular Pharmacology Branch, DTP, NCI, 2024)
pIC50: −log10 of the molar value.

Test system: 252836-082-R-J2-PDC tumor spheroids, viability
Assay: Anticancer human tumor 252836-082-R-J2-PDC patient-derived head and neck squamous cell carcinoma cell line growth inhibition [PI3K]
Settings: spheroids with HUVEC and MSC; for pIC50: curve of first compound; for viability, T/C: stronger effect = lower value
In short: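 Tumor cells grown as multi-cell spheroids with HUVEC endothelial cells and MSC fibroblast-like stroma were treated with targeted agents combined with inavolisib, alpelisib, duvelisib or copanlisib. Doses fell in half-log steps from near clinical Cmax, else from 10 microM. Viability was measured.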
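Further: spheroids exposed to agents for seven days before readout.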
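Wherever viability, T/C is given: percent of vehicle DMSO control viability so 100% = untreated growth.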

## CC(C)NCC(C(=O)N1CCN(c2ncnc3c2C(C)CC3O)CC1)c1ccc(Cl)cc1 (configuration not stated) + COc1c(OCCCN2CCOCC2)ccc2c3n(c(=NC(=O)c4cnc(N)nc4)nc12)CCN3
Second compound 0.00316 µM
  pIC50: 5.98
Second compound 0.01 µM
  pIC50: 6.25
Second compound 0.0316 µM
  pIC50: 6.55
Second compound 0.1 µM
  pIC50: > 7.50
Second compound 0.316 µM
  pIC50: > 7.50
Second compound 1 µM
  pIC50: > 7.50
Second compound 0.00316 µM, first compound 0.0316 µM
  viability, T/C: 82.9%
Second compound 0.00316 µM, first compound 0.1 µM
  viability, T/C: 77.9%
Second compound 0.00316 µM, first compound 0.316 µM
  viability, T/C: 64.8%
Second compound 0.00316 µM, first compound 1 µM
  viability, T/C: 50.6%
Second compound 0.00316 µM, first compound 3.16 µM
  viability, T/C: 34.6%
Second compound 0.00316 µM, first compound 10 µM
  viability, T/C: 20.3%
Second compound 0.01 µM, first compound 0.0316 µM
  viability, T/C: 71.2%
Second compound 0.01 µM, first compound 0.1 µM
  viability, T/C: 64.3%
Second compound 0.01 µM, first compound 0.316 µM
  viability, T/C: 59.7%
Second compound 0.01 µM, first compound 1 µM
  viability, T/C: 41.3%
Second compound 0.01 µM, first compound 3.16 µM
  viability, T/C: 26.4%
Second compound 0.01 µM, first compound 10 µM
  viability, T/C: 15.4%
Second compound 0.0316 µM, first compound 0.0316 µM
  viability, T/C: 56.2%
Second compound 0.0316 µM, first compound 0.1 µM
  viability, T/C: 56.4%
Second compound 0.0316 µM, first compound 0.316 µM
  viability, T/C: 47.2%
Second compound 0.0316 µM, first compound 1 µM
  viability, T/C: 40%
Second compound 0.0316 µM, first compound 3.16 µM
  viability, T/C: 21.9%
Second compound 0.0316 µM, first compound 10 µM
  viability, T/C: 11.6%
Second compound 0.1 µM, first compound 0.0316 µM
  viability, T/C: 36.6%
Second compound 0.1 µM, first compound 0.1 µM
  viability, T/C: 30.3%
Second compound 0.1 µM, first compound 0.316 µM
  viability, T/C: 26%
Second compound 0.1 µM, first compound 1 µM
  viability, T/C: 24.7%
Second compound 0.1 µM, first compound 3.16 µM
  viability, T/C: 17.1%
Second compound 0.1 µM, first compound 10 µM
  viability, T/C: 10.2%
Second compound 0.316 µM, first compound 0.0316 µM
  viability, T/C: 14.3%
Second compound 0.316 µM, first compound 0.1 µM
  viability, T/C: 13.8%
Second compound 0.316 µM, first compound 0.316 µM
  viability, T/C: 11.6%
Second compound 0.316 µM, first compound 1 µM
  viability, T/C: 12.8%
Second compound 0.316 µM, first compound 3.16 µM
  viability, T/C: 8.52%
Second compound 0.316 µM, first compound 10 µM
  viability, T/C: 5.44%
Second compound 1 µM, first compound 0.0316 µM
  viability, T/C: 4.96%
Second compound 1 µM, first compound 0.1 µM
  viability, T/C: 3.28%
Second compound 1 µM, first compound 0.316 µM
  viability, T/C: 5.23%
Second compound 1 µM, first compound 1 µM
  viability, T/C: 4.34%
Second compound 1 µM, first compound 3.16 µM
  viability, T/C: 3.37%
Second compound 1 µM, first compound 10 µM
  viability, T/C: 3.42%
